# Measurements: paper PMC3160846 (PLoS ONE, 2011)
# Read-outs that look alike come from different tables or passages of the source.
# What was measured:
# KB-VIN10 cells = assay: Endo-replication (polyploidy), microscopy and flow cytometry, KB-VIN10; type: cell-based, Human; settings: for formation of polyploidy (populations >4N): KB-VIN10, 48 h, same concentrations as KB
# Protocol: Cell cycle progression was monitored using flow cytometry. After drug treatment, cells were trypsinized, washed with PBS and fixed in 80% ethanol at −20°C for 1 h. The fixed cells were stained with propidium iodide (containing RNase) at room temperature in the dark for 20 min. The DNA content was determined by a fluorescence-activated cell sorting IV flow cytometer (BD Biosciences, Franklin Lakes, NJ). For each analysis, 10,000 cells were counted and the percentage of cells in each phase was calculated using the ModFit LT software (Verity Software House, Topsham, ME). Experiments were repeated independently at least three times.
# [1] = test system: various human cancer cell lines; assay: Clonogenic assay, panel of cancer cell lines; type: cell-based; settings: for IC50: Homo sapiens
# Protocol: (§1) Human lung adenocarcinoma A549 cells and NTUB1 bladder cancer cells were maintained in RPMI supplied with 10% fetal bovine serum. KB-derived MDR1-expressing cell lines (i.e. KB-VIN10 and KB-S15) and NTUB1-dervided MDR1-expressing cell line (i.e. NTU0.017) were maintained in growth medium supplemented with 10 nM vincristine, 15 nM and 17 nM paclitaxel respectively. […] KB-derived MRP1-expressing cell line, KB-7D, was maintained in growth medium supplemented with 7 µM VP-16.
# (§2) Two hundred cells in logarithmic growth phase were seeded in a 6-well plate. The cells were exposed to various concentrations of the test drugs for a three-generation period. At the end of the incubation period, cells were fixed and stained with 50% ethanol containing 0.5% methylene blue for 30 min. The plates were washed five times with water and allowed to air-dry. Colonies were countered manually. The IC50 value resulting from 50% inhibition of cell growth was calculated graphically as a comparison with the growth of the control group. Each value represents the average of at least three independent experiments run in triplicates.
# NTUB1 cells = assay: Clonogenic assay, NTUB1; type: cell-based, Human; settings: Homo sapiens; NTUB1, bladder, MDR1 negative (parental); read-out: IC50, anti-proliferative activity
# Protocol: (§3) Human lung adenocarcinoma A549 cells and NTUB1 bladder cancer cells were maintained in RPMI supplied with 10% fetal bovine serum. […] KB-derived MRP1-expressing cell line, KB-7D, was maintained in growth medium supplemented with 7 µM VP-16.
# as §2, with “The IC50 value resulting from 50% inhibition of cell growth was calculated graphically as a comparison with the growth of the control group.” left out
# Aurora-A = biological target: T1, Aurora-A (Homo sapiens, UniProt O14965); assay: In vitro kinase inhibition assay, Aurora-A; type: biochemical; settings: recombinant GST-tagged Aurora-A, 37°C, 90 min
# T1 construct: GST-tagged Aurora-A (residues S123-S401) containing kinase domain; GST; made in house; host or cells: Sf9 insect cells
# T1 sequence (O14965 123-401): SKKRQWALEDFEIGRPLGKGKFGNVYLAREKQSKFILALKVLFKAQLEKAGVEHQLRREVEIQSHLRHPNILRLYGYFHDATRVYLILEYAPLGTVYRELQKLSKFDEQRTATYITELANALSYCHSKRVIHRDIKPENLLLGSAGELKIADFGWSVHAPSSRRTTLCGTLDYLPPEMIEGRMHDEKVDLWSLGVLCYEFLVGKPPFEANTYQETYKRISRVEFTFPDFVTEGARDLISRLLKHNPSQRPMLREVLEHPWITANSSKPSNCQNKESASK
# Protocol: Aurora-A and Aurora-B kinase - The recombinant GST-tagged Aurora-A (residues S123-S401) containing kinase domain was expressed in Sf9 insect cells. The recombinant full length His-tagged Aurora-B (residues M1∼A344) was purchased from Invitrogen (PV3970). The kinase assay were carried out in 96-well plates with the tested compound at either 37°C (Aurora-A) for 90 min or 30°C (Aurora-B) for 120 min.
# (§4) Composition of the reaction buffers used in different kinase inhibitory assays is described in Figure S3.
# 50 mM Tris-HCl pH 7.4, 10 mM NaCl, 10 mM MgCl2, 0.01% BSA, 5 mM ATP, 1 mM DTT and […] tetra(LRRASLG) peptide, and either 150 ng recombinant Aurora-A or 40 ng recombinant Aurora-B.
# VEGFR1 = biological target: T2, VEGFR1 (Homo sapiens, UniProt P17948); assay: Kinase inhibition assay, VEGFR1; type: biochemical
# T2 construct: GST-tagged VEGFR1 (residues R781-I1338); GST; made in house; host or cells: Sf9 insect cells
# T2 sequence (P17948 781-1338): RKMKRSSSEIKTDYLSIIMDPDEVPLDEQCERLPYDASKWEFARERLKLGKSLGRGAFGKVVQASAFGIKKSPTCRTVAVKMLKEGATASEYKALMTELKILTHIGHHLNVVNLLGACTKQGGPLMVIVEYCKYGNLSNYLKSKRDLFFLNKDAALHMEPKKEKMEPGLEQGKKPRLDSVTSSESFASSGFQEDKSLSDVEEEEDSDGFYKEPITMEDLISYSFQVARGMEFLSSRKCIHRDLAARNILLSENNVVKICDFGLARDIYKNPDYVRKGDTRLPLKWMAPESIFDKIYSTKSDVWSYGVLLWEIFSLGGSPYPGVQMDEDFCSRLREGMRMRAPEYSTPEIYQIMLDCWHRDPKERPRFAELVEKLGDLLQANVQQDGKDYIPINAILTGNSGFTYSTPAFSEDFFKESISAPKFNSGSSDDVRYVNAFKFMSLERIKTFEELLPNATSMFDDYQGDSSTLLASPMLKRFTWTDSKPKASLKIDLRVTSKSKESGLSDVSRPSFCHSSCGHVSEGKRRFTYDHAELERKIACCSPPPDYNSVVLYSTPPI
# Protocol: VEGFR1/2 – The recombinant GST-tagged VEGFR1 (residues R781-I1338) or VEGFR2 (residues V789-V1356) containing kinase domain were expressed in Sf9 insect cells. The kinase assay was carried out in 96-well plates with the tested compound at 30°C for 120 min.
# as §4
# 25 mM HEPES pH 7.4, 10 mM MgCl2, 4mM MnCl2, 0.5mM Na3VO4, 2 mM DTT, 0.02% Triton X100, 0.01% BSA, 1 mM ATP, 2 mM polyGlu4:Tyr peptide, 50~100 ng recombinant VEGFR1 or VEGFR2.
# KB-7D cells = assay: Clonogenic assay, KB-7D; type: cell-based; settings: Homo sapiens, KB7D, VP-16 resistant, MRP1 ↑, read-out: IC50, anti-proliferative activity
# Protocol: as §1, §2
# EGFR = biological target: T3, EGFR (Homo sapiens, UniProt P00533); assay: Kinase inhibition assay, EGFR; type: biochemical
# T3 construct: GST-tagged EGFR (residues G696-G1022) containing kinase domain; GST; made in house; host or cells: Sf9 insect cells
# T3 sequence (P00533 696-1022): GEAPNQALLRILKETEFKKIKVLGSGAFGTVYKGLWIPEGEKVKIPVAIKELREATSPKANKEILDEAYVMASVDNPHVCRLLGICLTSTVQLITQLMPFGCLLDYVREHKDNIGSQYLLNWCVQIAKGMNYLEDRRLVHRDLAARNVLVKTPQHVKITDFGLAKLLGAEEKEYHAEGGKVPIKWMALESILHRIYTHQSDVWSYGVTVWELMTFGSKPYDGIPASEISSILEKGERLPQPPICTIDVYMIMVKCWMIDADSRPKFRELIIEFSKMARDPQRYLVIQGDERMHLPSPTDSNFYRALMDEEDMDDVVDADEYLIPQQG
# Protocol: EGFR – The recombinant GST-tagged EGFR (residues G696-G1022) containing kinase domain was expressed in Sf9 insect cells. The kinase assay was carried out in 96-well plates with the tested compound at 37°C for 60 min.
# as §4
# 25 mM Tris pH 7.4 (EGFR), 10 m M MgCl2, 4 mM MnCl2, 0.5 mM Na3VO4, 2 mM DTT, 0.02% Triton X100, 0.01% BSA, […], 2 mM polyGlu4:Tyr peptide, 80~500 ng recombinant EGFR.
# A549 cells = assay: Clonogenic assay, A549; type: cell-based, Human; settings: Homo sapiens; A549, lung, p53 wild-type, MDR1 negative; read-out: IC50, anti-proliferative activity
# Protocol: as §3
# as §2, with “The IC50 value resulting from 50% inhibition of cell growth was calculated graphically as a comparison with the growth of the control group.” left out
# CHK1 = biological target: T4, CHK1 (Homo sapiens, UniProt O14757); assay: Kinase inhibition assay, CHK1; type: biochemical
# T4 construct: His-tagged CHK1 (residues M1-T476); His; made in house; host or cells: Sf9 insect cells
# T4 sequence (O14757 whole entry, the tested form may be a part): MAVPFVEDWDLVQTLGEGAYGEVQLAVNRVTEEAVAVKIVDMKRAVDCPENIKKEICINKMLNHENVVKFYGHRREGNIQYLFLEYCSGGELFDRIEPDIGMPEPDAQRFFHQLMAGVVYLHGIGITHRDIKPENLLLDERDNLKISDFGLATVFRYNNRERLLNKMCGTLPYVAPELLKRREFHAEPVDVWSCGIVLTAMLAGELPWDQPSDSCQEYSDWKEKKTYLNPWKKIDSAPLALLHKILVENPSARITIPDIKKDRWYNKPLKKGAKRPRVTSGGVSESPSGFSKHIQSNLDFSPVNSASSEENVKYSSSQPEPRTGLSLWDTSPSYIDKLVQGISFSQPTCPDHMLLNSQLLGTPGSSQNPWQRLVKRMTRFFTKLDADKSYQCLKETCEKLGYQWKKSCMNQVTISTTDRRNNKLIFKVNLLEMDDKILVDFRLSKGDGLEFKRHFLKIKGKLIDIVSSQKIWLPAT
# Protocol: CHK1/2 – The recombinant His-tagged CHK1 (residues M1-T476) or CHK2 (residues M1-L543) containing kinase domain were expressed in Sf9 insect cells. The kinase assay was carried out in 96-well plates with the tested compound at 30°C for 120 min.
# as §4
# 25 mM HEPES pH 7.4, 10mM MgCl2, 4mM MnCl2, 0.5mM Na3VO4, 2 mM DTT, 0.02% Triton X100, 0.01% BSA, 1 mM ATP, 2 mM CHK peptide ([…]), 50~500 ng recombinant CHK1 or CHK2.
SMILES,formation of polyploidy (populations >4N) (KB-VIN10 cells),"IC50 ([1]; A549, HONE-1, OECM-1, KB, HT29, NTUB1, MV4-11, IM9, read-out: IC50 against various types of cancer cells) [µM]",IC50 ([1]; read-out: IC50 in all tested p53-wildtype/-negative/-mutant cancer cell lines) [µM],"effect of verapamil treatment on sensitivity ([1]; MDR-negative and MDR1-expressing cancer cells, verapamil 10 µM, data not shown)",IC50 (NTUB1 cells) [µM],IC50 (Aurora-A) [µM],IC50 (VEGFR1) [µM],IC50 (KB-7D cells) [µM],IC50 (EGFR) [µM],IC50 (A549 cells) [µM],IC50 (CHK1) [µM],"formation of polyploidy, co-treated with verapamil (KB-VIN10 cells; KB-VIN10, + 10 µM verapamil)"
CN(C)Cc1ccccc1NC(=O)Nc1ccc(CCNc2ncnc3oc(-c4ccccc4)c(Cl)c23)cc1 [BPR1K653],induced the formation of polyploidy,< 0.5,< 0.02,could not further increase the sensitivity to BPR1K653,0.008 ± 0.004,0.124,> 10,0.019,> 10,0.009,> 10,–
Cc1cc(Nc2cc(N3CCN(C)CC3)nc(Sc3ccc(NC(=O)C4CC4)cc3)n2)[nH]n1 [VX680],not in KB-VIN10 cells,–,–,–,–,–,–,–,–,–,–,formation of the polyploidy population was shown
